Where no end group is shown, it is not given here.
Tested on: Lactobacillus sakei JCM1157
Test: Growth inhibition zones on MRS agar plates containing protease Umamizyme G, overlaid with indicator strain
Assay type: cell-based
Conditions: Example 2, protease 0 U/mL
Description: The lactic acid bacterium Weissella sp. AJ110263 (FERM P-19577), isolated from fermented milk matsoon, and the lactic acid bacteria Pediococcus pentosaceus JCM5885, Pediococcus pentosaceus JCM5890, Lactobacillus plantarum JCM1149, and Lactobacillus salivarius JCM1231, obtained from type cultures, were precultured and cultured on MRS liquid medium (Table 1 above). The culture temperature was 30° C. for Weissella sp. and 37° C. for the other strains. The above lactic acid bacteria were inoculated onto and cultured for 24 hours on MRS agar medium plates to which “Umamizyme G”, a protease derived from Aspergillus, had been added in quantities of 0 U/mL (none added), 200 U/ML, and 400 U/mL. In culturing, 100 mL of MRS medium was added to a 500 mL Sakaguchi flask, […] was inoculated, and the medium was shaken 100 times/min.
These plates were cultured for 24 hours at 30° C., resulting in the formation of growth inhibition zones in the indicator strains (Table 10 below).
Lactococcus lactis NCD0497 (a bacterium producing nisin A) and Lactococcus lactis NCIMB702054 (a bacterium producing nisin Z) were separately cultured in MRS liquid medium at 30° C. In the same manner as in Example 1, antibiotic evaluation was conducted using Lactobacillus sakei strain JCM1157 as an indicator strain. […]

Nisin A: nisin A 1,000 IU/mL solution made by ICN Biomedical, spotted without bacterial strains (ITSISLCTPGCKTGALMGCNMKTATCHCSIHVSK; also: lantibiotic, lanthionine bridges and dehydro residues not placed; UniProt P13068 24-57, looked up)
diameters of the proliferation inhibition zones: 30

Reference: patent publication US20070009503A1, “Antibiotic, Compositions Containing the Antibiotic, and Methods for Administering the Antibiotic and/or Said Compositions to Livestock” (priority 2004, published 2007)
